Experimental data as given in patent publication US8785457B2 (Cellzome Limited, priority 2009, dated 2014).
Like-named read-outs stand apart in the source and are kept apart here.

Legend:
[1] = test system: Salmonella strain TA100
Description: (§1) Certain compounds of the invention were tested in a miniaturized screening version of the Ames test that requires a small amount of compound compared with the regulatory test. The Ames fluctuation assay is performed in 384-well plates using two Salmonella strains, TA98 and TA100. TA98 detects frameshifts and TA100 detects base substitutions leading to missense mutations. Whereas the original Ames test is carried out by plating bacteria onto selective agar plates, the Ames fluctuation assay is carried out in liquid culture using 384-well plates. The bacterial plates are incubated with the test compounds for 96 hours, after which bacterial growth is measured spectrophotometrically using a pH indicator that changes color in response to the acidification of the media due to bacterial growth.
(§2) Metabolic activation is achieved by using rat liver S9 fraction (0.2 mg/ml). To prevent false negatives due to bacteriocidal or bacteriostatic effects, a bacterial cytotoxicity assay is conducted in parallel with the Ames fluctuation assay. Compounds are typically tested in both bacterial strains with and without S9, at four concentrations (5, 10, 50 and 100 μM) with n=48 wells. A bacterial cytotoxicity test is conducted in parallel at 8 concentrations (with 100 μM as the highest concentration) and n=3 wells. Four reference compounds (quercetin, streptozotocin, aminoanthracene and mitomycin C) are included in all experiments.
(§3) The significance of the positive counts between the treatment (in the presence of compound) and the control (in the absence of test compound) are calculated using the one-tailed Fisher's exact test—the significance levels are reported as follows: • Weak positive, if 0.01≦p≦0.05, denoted as “+” • Strong positive, if 0.001≦p≦0.01, denoted as “++” • Very strong positive, if p<0.001, denoted as “+++” • Hyphens (−) indicate negative results

[2] = test system: Salmonella strain TA98
Description: as §1, §2, §3

[3] = test system: Salmonella strains, TA98 and TA100; conditions: with rat liver S9 fraction
Source text: The Ames Salmonella/microsome mutagenicity assay (Salmonella test; Ames test) is a standard, short-term bacterial reverse mutation assay specifically designed to detect a wide range of chemical substances that can produce genetic damage leading to gene mutations. The test employs several histidine dependent Salmonella strains each carrying different mutations in various genes of the histidine operon (Mortelmans and Zeiger 2000, Mutation Research 455, 29-60). […]
Certain compounds of the invention were tested in a miniaturized screening version of the Ames test that requires a small amount of compound compared with the regulatory test. […] The bacterial plates are incubated with the test compounds for 96 hours, after which bacterial growth is measured spectrophotometrically using a pH indicator that changes color in response to the acidification of the media due to bacterial growth. […]
as §3

Row | SMILES | Ames fluctuation assay TA100 +S9 ([1]; TA100, +S9, 5 μM) | Ames fluctuation assay TA100 +S9 ([1]; TA100, +S9, 10 μM) | Ames fluctuation assay TA100 +S9 ([1]; TA100, +S9, 50 μM) | Ames fluctuation assay TA100 +S9 ([1]; TA100, +S9, 100 μM) | Ames fluctuation assay TA98 +S9 ([2]; TA98, +S9, 5 μM) | Ames fluctuation assay TA98 +S9 ([2]; TA98, +S9, 10 μM) | Ames fluctuation assay TA98 +S9 ([2]; TA98, +S9, 50 μM) | Ames fluctuation assay TA98 +S9 ([2]; TA98, +S9, 100 μM) | Ames assay result [3]
1 | CCOC(=O)N1Cc2nc(-c3ccc(N)c(F)c3)nc(N3CCOC[C@@H]3C)c2C1 [Intermediate 19] | − | +++ (Very strong positive, if p<0.001, denoted as “+++”) | +++ (Very strong positive, if p<0.001, denoted as “+++”) | +++ (Very strong positive, if p<0.001, denoted as “+++”) | +++ +++ +++ +++ (Very strong positive, if p<0.001, denoted as “+++”) | +++ +++ +++ +++ (Very strong positive, if p<0.001, denoted as “+++”) | +++ +++ +++ +++ (Very strong positive, if p<0.001, denoted as “+++”) | +++ +++ +++ +++ (Very strong positive, if p<0.001, denoted as “+++”) | 
2 | CCOC(=O)N1Cc2nc(-c3ccc(N)cc3)nc(N3CCOC[C@@H]3C)c2C1 [Metabolite Example 137, (S)-ethyl 2-(4-aminophenyl)-4-(3-methylmorpholino)-5H-pyrrolo[3,4-d]pyrimidine-6(7H)-carboxylate] |  |  |  |  |  |  |  |  | Ames positive
3 | CCOC(=O)N1Cc2nc(-c3ccc(N)cc3)nc(N3CCOC[C@@H]3C)c2C1 [Example 137] | − | − | ++ (Strong positive, if 0.001≦p≦0.01, denoted as “++”) | − | +++ +++ +++ +++ (Very strong positive, if p<0.001, denoted as “+++”) | +++ +++ +++ +++ (Very strong positive, if p<0.001, denoted as “+++”) | +++ +++ +++ +++ (Very strong positive, if p<0.001, denoted as “+++”) | +++ +++ +++ +++ (Very strong positive, if p<0.001, denoted as “+++”) | 
